Experimental data from patent US12384797B2, “Thioeno[3,2-b] pyridin-7-amine compounds for treating familial dysautonomia” (PTC THERAPEUTICS, INC., priority 2019, dated 2025).

System: Elongator complex protein 1 (ELP1, also referred to as IKBKAP)
Assay: IKBKAP-HTRF assay (IKBKAP protein in lysates of FD patient-derived fibroblasts)
Format: cell-based, human
Conditions: 48 hours incubation, 7-point concentration curve
Outline: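 FD patient-derived fibroblasts (10,000/well) were treated 48 h at 37 °C with a 7-point, 3.16-fold compound series in triplicate, then lysed. IKBKAP was read by sandwich HTRF (donor/acceptor anti-IKAP antibodies, overnight at 4 °C, 665/620 nm). MFI is ΔF over vehicle ΔF; EC2x is the concentration giving twice the vehicle IKBKAP level.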

Row | SMILES | EC2x for IKBKAP protein expression (concentration producing two times the amount of IKBKAP protein vs DMSO vehicle control) | MFI (maximum fold increase in IKBKAP protein abundance relative to the vehicle control)
1 | N#Cc1csc2c(NCc3ccco3)cc(Cl)nc12 [Compound 14, 5-chloro-7-{[(furan-2-yl)methyl]amino}thieno[3,2-b]pyridine-3-carbonitrile] | *** (between >0.02 μM and ≤0.5 μM is indicated by three stars (***)) | ***** (>4.9 is indicated by five stars (*****))
2 | N[C@@H](CCF)Cc1sc2c(NCc3nccs3)cc(Cl)nc2c1Br [Compound 88, 2-[(2S)-2-amino-4-fluorobutyl]-3-bromo-5-chloro-N-[(1,3-thiazol-2-yl)methyl]thieno[3,2-b]pyridin-7-amine] | ***** (≤0.005 μM is indicated by five stars (*****)) | ***** (>4.9 is indicated by five stars (*****))
3 | Cc1c(C[C@@H](N)CC(C)C)sc2c(NCc3cccs3)cc(Cl)nc12 [Compound 61, 2-[(2S)-2-amino-4-methylpentyl]-5-chloro-3-methyl-N-[(thiophen-2-yl)methyl]thieno[3,2-b]pyridin-7-amine] | ***** (≤0.005 μM is indicated by five stars (*****)) | ***** (>4.9 is indicated by five stars (*****))
